Molecules are shown by their SMILES. Values after ≈ are worked out from the molar mass of the structure shown.

In series [1] the test system is hyperlipoidemia patient. As to conditions: 2.2 mg/kg/d; cited from earlier work.
Series [2] is described as follows: Solubility of polydatin in alcohol-propanediol-water mixed solvent (Embodiment 15). The series is classed as physicochemical. As to conditions: for solubility at 8 h: aqueous with cosolvent or surfactant or cyclodextrin, thermodynamic from solid. The text has this: 1. Materials: Anhydrous alcohol, analytically pure, Guangzhou No. 2 chemical reagent factory; 1,2-propanediol, analytically pure, Guangzhou No. 2 chemical reagent factory; purified water, […] industry city. 2. Method: Precisely measuring alcohol water solution of 45%, 60%, 75%(v/v), precisely adding propanediol at volume proportions of 10:1, 10:2, 10:2.5, 10:3, 10:4, preparing mixed solvents. The mixed solvents obtained contain propanediol of about 10%˜30%(v/v), alcohol of about 32%˜68%(v/v). Precisely measuring 20 ml of each above mixed solvent, adding polydatin of proper amount respectively, treating with ultrasonic for 20 min under 40° C., supersaturating the solution, placing for 8 h under room temperature, filtering with 0.45 μm microporous membrane, wherein the filtrates are saturated solutions of polydatin in different mixed solutions. Adopting HPLC method to determine content of polydatin in the filtrates and calculate solubility of polydatin referring to document 20.

Experiment in series [3]: as above
The series is classed as physicochemical. The following applies: mixed solvent of 60% alcohol-water and propanediol 10:25(v/v) as printed.

For series [4], the system named is blood platelet. As to conditions: 6˜100 μmol/L; cited from earlier work.

A word on the solubility: it is the dissolved amount per volume that the medium holds. Higher therefore signals much dissolved substance. For the compound `OCC1OC(Oc2cc(O)cc(/C=C/c3ccc(O)cc3)c2)C(O)C(O)C1O` [polydatin, 3,4′,5-trihydroxy-trans stilbene-3-β-D-glucoside], the “total cholesterol, LDL/HDL cholesterol ratio, and blood platelet aggregation rate” value in series [1] is recorded as “capable of lowering”. The solubility at 8 h was 27.8 mg/mL (≈ 71.2 mM) in series [2] (alcohol-propanediol-water mixed solvent, 45% alcohol water/propanediol 10/1); 34.3 mg/mL (≈ 87.9 mM) in series [2] (alcohol-propanediol-water mixed solvent, 45% alcohol water/propanediol 10/2); 39.5 mg/mL (≈ 101 mM) in series [2] (alcohol-propanediol-water mixed solvent, 45% alcohol water/propanediol 10/2.5); 42.4 mg/mL (≈ 109 mM) in series [2] (alcohol-propanediol-water mixed solvent, 45% alcohol water/propanediol 10/3); 52.2 mg/mL (≈ 134 mM) in series [2] (alcohol-propanediol-water mixed solvent, 45% alcohol water/propanediol 10/4); 55.7 mg/mL (≈ 143 mM) in series [2] (alcohol-propanediol-water mixed solvent, 60% alcohol water/propanediol 10/1). For the same compound, the solubility at 8 h in series [2] (alcohol-propanediol-water mixed solvent, 60% alcohol water/propanediol 10/2) was 66.4 mg/mL (≈ 170 mM); in series [2] (alcohol-propanediol-water mixed solvent, 60% alcohol water/propanediol 10/2.5) it was approximately 75 mg/mL (≈ 192 mM); in series [2] (alcohol-propanediol-water mixed solvent, 60% alcohol water/propanediol 10/3) it was 93.3 mg/mL (≈ 239 mM); in series [2] (alcohol-propanediol-water mixed solvent, 60% alcohol water/propanediol 10/4) it was 95.2 mg/mL (≈ 244 mM); in series [2] (alcohol-propanediol-water mixed solvent, 75% alcohol water/propanediol 10/1), 81.5 mg/mL (≈ 209 mM); in series [2] (alcohol-propanediol-water mixed solvent, 75% alcohol water/propanediol 10/2) it was 89.8 mg/mL (≈ 230 mM). Further, the solubility at 8 h in series [2] (alcohol-propanediol-water mixed solvent, 75% alcohol water/propanediol 10/2.5) was found to be 92.9 mg/mL (≈ 238 mM); in series [2] (alcohol-propanediol-water mixed solvent, 75% alcohol water/propanediol 10/3) it was 98.4 mg/mL (≈ 252 mM); in series [2] (alcohol-propanediol-water mixed solvent, 75% alcohol water/propanediol 10/4), 116 mg/mL (≈ 297 mM); in series [2] (alcohol-water solution without propanediol, 45% alcohol water, no propanediol (10/—)) it was 20.2 mg/mL (≈ 51.7 mM); in series [2] (alcohol-water solution without propanediol, 60% alcohol water, no propanediol (10/—)) it was 42.5 mg/mL (≈ 109 mM); in series [2] (alcohol-water solution without propanediol, 75% alcohol water, no propanediol (10/—)), 75.1 mg/mL (≈ 192 mM). Moreover, the concentration of polydatin entry in series [2] (mixed solvent of 60% alcohol-water and propanediol 10:2.0~10:4.0) is listed as “higher than 60 mg/ml”. The “stabilization of the solution in cold preservation” value in series [3] is on record as “good stabilization”. Further, the “production of the platelet accumulation and B2 thrombus induced by AA and ADP” value in series [4] was “capable of inhibiting”.

These data come from US20080261902A1, “Pharmaceutical composition containing polydatin and its application” (Shenzhen Neptunus Pharmaceutical Co., Ltd., priority 2005, published 2008).
